Reference: ChEMBL document CHEMBL1201862, “PubChem BioAssay data set” (2004)
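Dose response: 5 concentrations. Exposure: 48 h. Format: 96-well plates. Endpoint: linear interpolation; highest concentration if not reached. Abbreviation: GI50, concentration required for 50% inhibition of growth.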 Calls of active or inactive are those of the source. No stated cut-off is given here; in the data, active = GI50 up to about 1.1 µM and inactive = higher.

How the values were obtained:
Assay in all cases: DTP human tumour cell line panel, 48 h
[1] = test system: SR
[2] = test system: K562
[3] = test system: OVCAR-3
[4] = test system: SK-MEL-28
[5] = test system: IGROV-1
[6] = test system: SNB-19
[7] = test system: UACC-257
[8] = test system: RPMI-8226
[9] = test system: SF-295
[10] = test system: KM12
[11] = test system: ACHN
[12] = test system: SF-268
[13] = test system: MOLT-4
[14] = test system: SNB-75
[15] = test system: HL-60
[16] = test system: NCI-H522
[17] = test system: CAKI-1
[18] = test system: Malme-3M

Measured: GI50

C[C@H](C(=O)C12CC3CC(CC(C3)C1)C2)[C@H](O)c1ccccc1
inactive: [1] 29.4 µM | [2] 39.4 µM | [3] 22.4 µM | [4] 17.6 µM | [5] 40 µM | [6] 61.1 µM | [7] 29.9 µM | [8] 36 µM | [9] 31.9 µM | [10] 25.5 µM | [11] 33.8 µM | [12] 15.2 µM | [13] 23.9 µM | [14] 27 µM | [15] 23.1 µM | [16] 22 µM | [17] 36 µM

CC1=C(C(=O)Nc2ccccc2C)C(/C=C/c2ccccc2)C(C(=O)Nc2ccccc2C)=C(C)N1
inactive: [2] > 100 µM | [3] > 100 µM | [4] > 100 µM | [5] > 100 µM | [6] > 100 µM | [7] > 100 µM | [9] > 100 µM | [10] > 100 µM | [11] > 100 µM | [12] > 100 µM | [14] 33.5 µM | [15] 72.3 µM | [18] > 100 µM | [16] 67.1 µM | [17] > 100 µM

Cc1nc(Nc2ccccc2)sc1C(=O)NNc1ccc([N+](=O)[O-])cc1[N+](=O)[O-]
inactive: [1] 14.7 µM | [2] 12 µM | [3] 34.4 µM | [4] > 100 µM | [5] 45.9 µM | [6] 47.1 µM | [7] 43.5 µM | [9] 27.5 µM | [10] 34.4 µM | [11] 14.2 µM | [12] 75.5 µM | [13] 24.7 µM | [14] 22.7 µM | [15] 13.9 µM | [18] 43.9 µM | [16] 19.5 µM | [17] 31.5 µM

O=C(O)/C(=C/c1ccccc1[N+](=O)[O-])c1cccs1
inactive: [1] > 100 µM | [2] > 100 µM | [3] > 100 µM | [4] > 100 µM | [5] > 100 µM | [6] > 100 µM | [7] > 100 µM | [8] > 100 µM | [9] > 100 µM | [10] > 100 µM | [11] > 100 µM | [12] > 100 µM | [13] > 100 µM | [14] > 100 µM | [15] > 100 µM | [16] > 100 µM | [17] > 100 µM

Cn1c2c(c3ccccc31)CCN(CCCCN1CCc3c(n(C)c4ccccc34)C1=O)C2
inactive: [2] > 100 µM | [3] > 100 µM | [4] > 100 µM | [5] > 100 µM | [6] > 100 µM | [7] > 100 µM | [8] > 100 µM | [9] > 100 µM | [11] > 100 µM | [12] > 100 µM | [13] > 100 µM | [14] 88.1 µM | [15] > 100 µM | [18] > 100 µM | [16] > 100 µM | [17] > 100 µM

CC(=O)OC1CCn2nnc(COC(=O)NC(C)C)c21 (stereo not given)
inactive: [1] > 100 µM | [2] > 100 µM | [3] > 100 µM | [4] > 100 µM | [5] > 100 µM | [6] > 100 µM | [7] > 100 µM | [8] > 100 µM | [9] > 100 µM | [10] > 100 µM | [11] > 100 µM | [13] > 100 µM | [14] > 100 µM | [18] > 100 µM | [16] > 100 µM | [17] > 100 µM

CCOC(=O)C(=O)Nc1ccccc1C(F)(F)F
inactive: [1] 2.39 µM | [3] > 100 µM | [4] > 100 µM | [5] > 100 µM | [6] > 100 µM | [7] > 100 µM | [8] > 100 µM | [9] > 100 µM | [10] > 100 µM | [11] > 100 µM | [12] > 100 µM | [14] 79.4 µM | [18] > 100 µM | [17] > 100 µM

O=C(O)[C@@H](NS(=O)(=O)c1ccc([N+](=O)[O-])cc1)c1ccccc1
inactive: [2] > 100 µM | [3] > 100 µM | [4] > 100 µM | [5] > 100 µM | [6] > 100 µM | [7] > 100 µM | [8] > 100 µM | [9] > 100 µM | [10] > 100 µM | [11] > 100 µM | [12] > 100 µM | [13] > 100 µM | [14] > 100 µM | [15] > 100 µM | [18] > 100 µM | [16] 73.6 µM | [17] > 100 µM

CN1CCN2c3ccccc3CC(C#N)(C#N)C2C1 (stereo not given)
inactive: [2] > 100 µM | [3] > 100 µM | [4] > 100 µM | [5] > 100 µM | [6] > 100 µM | [7] > 100 µM | [8] > 100 µM | [9] > 100 µM | [10] > 100 µM | [11] > 100 µM | [12] > 100 µM | [13] > 100 µM | [14] > 100 µM | [15] > 100 µM | [18] > 100 µM | [16] > 100 µM | [17] > 100 µM

CCOC(=O)C1S/C(=N\c2ccc(OC)c(OC)c2)N=C1C (stereo not given)
inactive: [2] 36.6 µM | [3] 29.5 µM | [4] 30.6 µM | [5] 56.6 µM | [6] 53.5 µM | [7] 41.7 µM | [9] 36.5 µM | [10] 31.3 µM | [11] 33.6 µM | [12] 33.6 µM | [14] 24.5 µM | [15] 19.2 µM | [18] 37.7 µM | [16] 17 µM | [17] 39.3 µM

Nc1nc(CCC(=O)Nc2cccc(C(F)(F)F)c2)cc(-c2cccc3ccccc23)n1
inactive: [1] > 100 µM | [2] > 100 µM | [3] > 100 µM | [4] > 100 µM | [5] > 100 µM | [6] > 100 µM | [7] > 100 µM | [9] > 100 µM | [10] > 100 µM | [11] > 100 µM | [12] > 100 µM | [13] > 100 µM | [14] > 100 µM | [15] > 100 µM | [18] > 100 µM | [16] > 100 µM | [17] > 100 µM

COc1ccc2nccc(C3OC(=O)N4CCC(=O)CC34)c2c1 (stereo not given)
inactive: [1] > 100 µM | [2] > 100 µM | [3] > 100 µM | [4] > 100 µM | [5] > 100 µM | [6] > 100 µM | [7] > 100 µM | [8] > 100 µM | [9] > 100 µM | [10] > 100 µM | [11] > 100 µM | [12] > 100 µM | [13] > 100 µM | [15] > 100 µM | [16] 6.84 µM | [17] > 100 µM

CC[P+](C)(C)CC
inactive: [1] > 100 µM | [2] > 100 µM | [3] > 100 µM | [4] > 100 µM | [5] > 100 µM | [6] > 100 µM | [7] > 100 µM | [8] > 100 µM | [9] > 100 µM | [10] > 100 µM | [11] > 100 µM | [12] > 100 µM | [13] > 100 µM | [14] > 100 µM | [15] > 100 µM | [18] > 100 µM

C[C@H](NC(=O)n1c2ccccc2c2ccccc21)C(=O)O
inactive: [1] > 100 µM | [2] > 100 µM | [3] > 100 µM | [4] > 100 µM | [5] > 100 µM | [6] > 100 µM | [7] > 100 µM | [8] > 100 µM | [9] > 100 µM | [10] > 100 µM | [11] > 100 µM | [12] > 100 µM | [13] > 100 µM | [15] > 100 µM | [18] > 100 µM | [16] > 100 µM | [17] > 100 µM

CC12CC(Sc3ccccc3N1)c1ccccc1O2 (stereo not given)
inactive: [1] 13.6 µM | [2] 14.3 µM | [3] 16.4 µM | [4] 16.7 µM | [5] 21.9 µM | [6] 15.2 µM | [7] 14.5 µM | [8] 13.6 µM | [9] 16 µM | [10] 15.3 µM | [11] 16.9 µM | [12] 16.1 µM | [13] 16.6 µM | [14] 28.2 µM | [15] 11 µM | [18] 16.1 µM | [17] 19.2 µM

O=C(O)COc1ccc2c3c1C(=O)CCC3CO2 (stereo not given)
inactive: [2] > 100 µM | [3] > 100 µM | [4] > 100 µM | [5] > 100 µM | [6] > 100 µM | [7] > 100 µM | [8] > 100 µM | [9] > 100 µM | [10] > 100 µM | [11] > 100 µM | [12] > 100 µM | [13] > 100 µM | [15] > 100 µM | [18] > 100 µM | [16] > 100 µM | [17] > 100 µM

O=C(C(=O)c1ccc(Cc2ccc(C(=O)C(=O)c3ccccc3)cc2)cc1)c1ccccc1
inactive: [2] > 100 µM | [3] > 100 µM | [4] > 100 µM | [5] > 100 µM | [6] > 100 µM | [7] > 100 µM | [9] > 100 µM | [10] > 100 µM | [11] > 100 µM | [12] > 100 µM | [14] > 100 µM | [15] > 100 µM | [18] > 100 µM | [16] > 100 µM | [17] > 100 µM
